Laboratory results from patent US10906915B2, “Substituted pyrazoloazepin-4-ones and their use as phosphodiesterase inhibitors” (LEO Pharma A/S, priority 2016, dated 2021).
pIC50: −log10 of the molar value.

Biological target: human PDE4D catalytic domain (UniProt no. Q08499) (Homo sapiens (Human), UniProt Q08499)
Assay: PDE4 assay (TR-FRET, FAM-cAMP cleavage)
Assay type: biochemical
Conditions: human PDE4D catalytic domain; molar concentration giving 50% inhibition of substrate cleavage; read-out: PDE4 IC50 range
Summary of the method: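 Read-out is time-resolved FRET from Tb donor to FAM-AMP captured on trivalent-metal nanoparticles added to stop the reaction. Substrate was a mix of plain and FAM-labelled cAMP, cleaved by human PDE4D catalytic domain ([…]) with titrated compound; IC50 ranges (nM) versus controls.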

Chain of human PDE4D catalytic domain (Q08499 380-740 limits assumed): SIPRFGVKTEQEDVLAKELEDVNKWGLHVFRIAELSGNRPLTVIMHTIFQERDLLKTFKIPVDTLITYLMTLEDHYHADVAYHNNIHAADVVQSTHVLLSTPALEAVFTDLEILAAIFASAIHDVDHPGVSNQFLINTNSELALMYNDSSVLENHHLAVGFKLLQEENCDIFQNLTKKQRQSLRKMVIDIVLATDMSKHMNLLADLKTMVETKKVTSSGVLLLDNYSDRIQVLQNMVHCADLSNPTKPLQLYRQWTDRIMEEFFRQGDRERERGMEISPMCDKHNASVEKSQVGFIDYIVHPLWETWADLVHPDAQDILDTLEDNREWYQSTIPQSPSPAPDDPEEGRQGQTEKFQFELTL

Structure (SMILES) | pIC50
CCc1nn(C[C@@H](C)COC(=O)c2cccc(S(=O)(=O)C(C)C)c2)c2c1C(=O)NCC1(CCOCC1)C2 [Example 242, [(2R)-3-(3-ethyl-4-oxo-spiro[6,8-dihydro-5H-pyrazolo[4,3-c]azepine-7,4′-tetrahydropyran]-1-yl)-2-methyl-propyl] 3-isopropylsulfonylbenzoate] | > 7.00
CCc1nn(C[C@@H](C)COC(=O)c2ccc(S(=O)(=O)C(C)C)cc2)c2c1C(=O)NCC1(CCOCC1)C2 [Example 243, [(2R)-3-(3-ethyl-4-oxo-spiro[6,8-dihydro-5H-pyrazolo[4,3-c]azepine-7,4′-tetrahydropyran]-1-yl)-2-methyl-propyl] 4-isopropylsulfonylbenzoate] | > 7.00
CCc1nn(C[C@@H](C)COC(=O)c2ccc(S(=O)(=O)N3CCCC3)cc2)c2c1C(=O)NCC1(CCOCC1)C2 [Example 245, [(2R)-3-(3-ethyl-4-oxo-spiro[6,8-dihydro-5H-pyrazolo[4,3-c]azepine-7,4′-tetrahydropyran]-1-yl)-2-methyl-propyl] 4-pyrrolidin-1-ylsulfonylbenzoate] | > 7.00
CCc1nn(C[C@@H](C)COC(=O)c2cccc(S(=O)(=O)N3CCCC3)c2)c2c1C(=O)NCC1(CCOCC1)C2 [Example 246, [(2R)-3-(3-ethyl-4-oxo-spiro[6,8-dihydro-5H-pyrazolo[4,3-c]azepine-7,4′-tetrahydropyran]-1-yl)-2-methyl-propyl] 3-pyrrolidin-1-ylsulfonylbenzoate] | > 7.00
CCc1nn(C[C@@H](C)COC(=O)c2ccc(C(F)(F)F)c(C(F)(F)F)c2)c2c1C(=O)NCC1(CCOCC1)C2 [Example 247, [(2R)-3-(3-ethyl-4-oxo-spiro[6,8-dihydro-5H-pyrazolo[4,3-c]azepine-7,4′-tetrahydropyran]-1-yl)-2-methyl-propyl] 3,4-bis(trifluoromethyl)benzoate] | > 7.00
CCc1nn(C[C@@H](C)COC(=O)c2cccc(S(=O)(=O)N3CCOCC3)c2)c2c1C(=O)NCC1(CCOCC1)C2 [Example 248, [(2R)-3-(3-ethyl-4-oxo-spiro[6,8-dihydro-5H-pyrazolo[4,3-c]azepine-7,4′-tetrahydropyran]-1-yl)-2-methyl-propyl] 3-morpholinosulfonylbenzoate] | > 7.00
CCc1nn(C[C@@H](C)COC(=O)c2ccc(S(=O)(=O)N3CCOCC3)cc2)c2c1C(=O)NCC1(CCOCC1)C2 [Example 249, [(2R)-3-(3-ethyl-4-oxo-spiro[6,8-dihydro-5H-pyrazolo[4,3-c]azepine-7,4′-tetrahydropyran]-1-yl)-2-methyl-propyl] 4-morpholinosulfonylbenzoate] | > 7.00
CCc1nn(C[C@@H](C)COC(=O)c2ccc(S(=O)(=O)N3CCN(C(C)=O)CC3)cc2)c2c1C(=O)NCC1(CCOCC1)C2 [Example 250, [(2R)-3-(3-ethyl-4-oxo-spiro[6,8-dihydro-5H-pyrazolo[4,3-c]azepine-7,4′-tetrahydropyran]-1-yl)-2-methyl-propyl] 4-(4-acetylpiperazin-1-yl)sulfonylbenzoate] | > 7.00
CCc1nn(C[C@@H](C)COC(=O)c2cccc(S(=O)(=O)N3CCN(C(C)=O)CC3)c2)c2c1C(=O)NCC1(CCOCC1)C2 [Example 251, [(2R)-3-(3-ethyl-4-oxo-spiro[6,8-dihydro-5H-pyrazolo[4,3-c]azepine-7,4′-tetrahydropyran]-1-yl)-2-methyl-propyl] 3-(4-acetylpiperazin-1-yl)sulfonylbenzoate] | > 7.00
CCc1nn(C[C@@H](C)COC(=O)c2ccc(C(N)=O)cc2)c2c1C(=O)NCC1(CCOCC1)C2 [Example 252, [(2R)-3-(3-ethyl-4-oxo-spiro[6,8-dihydro-5H-pyrazolo[4,3-c]azepine-7,4′-tetrahydropyran]-1-yl)-2-methyl-propyl] 4-carbamoylbenzoate] | > 7.00
CCc1nn(C[C@@H](C)COC(=O)c2ccc(C(=O)NC)cc2)c2c1C(=O)NCC1(CCOCC1)C2 [Example 253, [(2R)-3-(3-ethyl-4-oxo-spiro[6,8-dihydro-5H-pyrazolo[4,3-c]azepine-7,4′-tetrahydropyran]-1-yl)-2-methyl-propyl] 4-(methylcarbamoyl)benzoate] | > 7.00
CCNC(=O)c1ccc(C(=O)OC[C@H](C)Cn2nc(CC)c3c2CC2(CCOCC2)CNC3=O)cc1 [Example 254, [(2R)-3-(3-ethyl-4-oxo-spiro[6,8-dihydro-5H-pyrazolo[4,3-c]azepine-7,4′-tetrahydropyran]-1-yl)-2-methyl-propyl] 4-(ethylcarbamoyl)benzoate] | > 7.00
CCc1nn(C[C@@H](C)COC(=O)c2ccc(C(=O)N(C)C)cc2)c2c1C(=O)NCC1(CCOCC1)C2 [Example 255, [(2R)-3-(3-ethyl-4-oxo-spiro[6,8-dihydro-5H-pyrazolo[4,3-c]azepine-7,4′-tetrahydropyran]-1-yl)-2-methyl-propyl] 4-(dimethylcarbamoyl)benzoate] | > 7.00
CCc1nn(C[C@@H](C)COC(=O)c2ccc(C(=O)NC(C)C)cc2)c2c1C(=O)NCC1(CCOCC1)C2 [Example 256, [(2R)-3-(3-ethyl-4-oxo-spiro[6,8-dihydro-5H-pyrazolo[4,3-c]azepine-7,4′-tetrahydropyran]-1-yl)-2-methyl-propyl] 4-(isopropylcarbamoyl)benzoate] | > 7.00
CCc1nn(C[C@@H](C)COC(=O)c2ccc(C(=O)N3CCCC3)cc2)c2c1C(=O)NCC1(CCOCC1)C2 [Example 257, [(2R)-3-(3-ethyl-4-oxo-spiro[6,8-dihydro-5H-pyrazolo[4,3-c]azepine-7,4′-tetrahydropyran]-1-yl)-2-methyl-propyl] 4-(pyrrolidine-1-carbonyl)benzoate] | > 7.00
CCc1nn(C[C@@H](C)COC(=O)c2ccc(C(=O)N3CCCCC3)cc2)c2c1C(=O)NCC1(CCOCC1)C2 [Example 258, [(2R)-3-(3-ethyl-4-oxo-spiro[6,8-dihydro-5H-pyrazolo[4,3-c]azepine-7,4′-tetrahydropyran]-1-yl)-2-methyl-propyl] 4-(piperidine-1-carbonyl)benzoate] | > 7.00
CCc1nn(C[C@@H](C)COC(=O)c2ccc(C(=O)N3CCNCC3)cc2)c2c1C(=O)NCC1(CCOCC1)C2 [Example 259, [(2R)-3-(3-ethyl-4-oxo-spiro[6,8-dihydro-5H-pyrazolo[4,3-c]azepine-7,4′-tetrahydropyran]-1-yl)-2-methyl-propyl] 4-(piperazine-1-carbonyl)benzoate] | > 7.00
CCc1nn(C[C@@H](C)COC(=O)c2ccc(C(=O)N3CCOCC3)cc2)c2c1C(=O)NCC1(CCOCC1)C2 [Example 260, [(2R)-3-(3-ethyl-4-oxo-spiro[6,8-dihydro-5H-pyrazolo[4,3-c]azepine-7,4′-tetrahydropyran]-1-yl)-2-methyl-propyl] 4-(morpholine-4-carbonyl)benzoate] | > 7.00
CCc1nn(C[C@@H](C)COC(=O)c2ccc(C(=O)N3CCN(C)CC3)cc2)c2c1C(=O)NCC1(CCOCC1)C2 [Example 261, [(2R)-3-(3-ethyl-4-oxo-spiro[6,8-dihydro-5H-pyrazolo[4,3-c]azepine-7,4′-tetrahydropyran]-1-yl)-2-methyl-propyl] 4-(4-methylpiperazine-1-carbonyl)benzoate] | > 7.00
